Results from patent US20230225999A1, “A NUTRITIONAL COMPOSITION COMPRISING 3-HYDROXYBUTYRIC ACID TO IMPROVE THE GASTROINTESTINAL BARRIER” (priority 2020, published 2023).

Test system: co-culture cell-line model of intestinal epithelial cells containing Caco-2 and HT29-MTX cells
Test: Direct effect of 3-hydroxybutyric acid on inflammation-induced epithelial barrier dysfunction (FD4 translocation)
Format: cell-based, human
Conditions: 10 μM apical, 36 hours pre-treatment, then TNF-α (2.5 ng/ml) and IFN-γ (10 ng/ml) for 48 hours
Method: The human Caco-2 and HT29-MTX cell lines were obtained from the American Type Culture Collection (ATCC) and the European Collection of Authenticated Cell Cultures (ECACC), respectively. Caco-2 cell and HT29-MTX were maintained separately in culture flasks at 37° C. under humidified 10% CO2 atmosphere in Dulbecco's […] (DMEM) supplemented with GlutaMAX (Invitrogen), 1% […], 100 μg/ml streptomycin, 100 UI/ml penicillin and heat inactivated fetal bovine serum (FBS; 15% for Caco-2 and 10% for HT29-MTX). To make co-culture for epithelial barrier studies, each cell lines were expanded in their respective flasks until 90% confluent monolayers were reached. Cell lines are then trypsinized with 1× trypsin. Co-culture of Caco-2 and HT29-MTX were seeded at 6×10^4/cm^2 on 1.12 cm^2 Transwell Polycarbonate semi-permeable membranes (0.4 μm) and grown in DMEM supplemented with GlutaMAX, 1% minimum essential media, 100 μg/ml streptomycin, 100 UI/ml penicillin and 10% heat inactivated FBS for 21 days. […] At the end of the experiment, translocation of the FITC-labeled dextran (4000 Da) from the apical to basolateral compartment was quantified within a 2-hour period. FD4 translocation data were analysed by using the two-sided two-sample Student t-test assuming unequal variances.

How did the “Epithelial barrier intactness: translocation of FITC-labeled dextran (FD4) from apical to basolateral compartment relative to control +ve (FIG. 6)” value turn out when CC(O)CC(=O)O (stereo not shown) [3-hydroxybutyric acid] was run?
Its value is “protect the barrier against inflammation-induced epithelial barrier hyperpermeability”.
